Tested on: gut microbiota
Assay: Gut microbiome analysis (16S rRNA sequencing of fecal samples) in STAM model of NASH
Format: in vivo, C57BL/6J mice
Conditions: pre (baseline)
From the text: The study is reported in accordance with Animal Research: Reporting of In Vivo Experiments (ARRIVE) guidelines. C57BL/6J mice were obtained from Japan SLC, Inc. (Japan). All animals used in this study were cared for under the following guidelines: Act on Welfare and Management of Animals (Ministry of the Environment, Japan, Act No. 105 of Oct. 1, 1973), standards relating to the care and management of laboratory animals and relief of pain (Notice No. 88 of the Ministry of the Environment, Japan, Apr. 28, 2006) and the guidelines for proper conduct of animal experiments (Science Council of Japan, Jun. 1, 2006). Protocol approvals were obtained from SMC Laboratories, Japan's IACUC (Study reference no: […] Mice were maintained in a specific pathogen-free (SPF) facility under controlled conditions of temperature (23±3° C.), humidity (50±20%), lighting (12-hour artificial light and dark cycles; light from 8:00 to 20:00) and air exchange. The STAM model of NASH was induced as previously described [D10]. Mice were given a single subcutaneous injection of 200 μg streptozotocin (STZ, Sigma-Aldrich, USA) solution 2 days after birth and fed with a high-fat diet (HFD, 57 kcal % fat, Cat #HFD32, CLEA Japan, Inc., Japan) from 4-9 weeks of age. All mice develop liver steatosis and diabetes and at […] mice had established steatohepatitis, histologically. Studygroups: There were five study groups, described below. Eight mice were included in each study group. Eight NASH mice were orally administered vehicle supplemented with AFO-202 Beta Glucan at a dose of 1 mg/kg in a volume of 5 mL/kg once daily from 6 to 9 weeks of age. Eight NASH mice were orally administered vehicle supplemented with Telmisartan at a dose of 10 mg/kg once daily from 6 to 9 weeks of age. Frequency: Fecal samples were collected at the 6 weeks of age (before administration) and 9 weeks of age (before sacrifice). Procedure: At 6 weeks of age, fecal samples were collected from each mouse by clean catch method. […] A sterile petri dish was placed on the bench. Gently massage the abdomen, position the bottom of mouse over a fresh petri dish, and collect 1-2 fecal pellets. At sacrifice, fecal samples were aseptically collected from cecum. The tubes with feces were placed on ice immediately. These tubes were snap frozen in liquid nitrogen and stored at -80° C. for shipping. In this analysis, the 16S rRNA sequence data acquired by the next-generation sequencer from the fecal […] was used to perform community analysis using the QIIME2 program for microbial community analysis. The raw read data in FASTQ format output from the next-generation sequencer was trimmed to remove adapter sequences and low QV regions that may be included in the data. Cutadapt was used to remove adapter sequences from DNA sequencing reads. Trimmomatic was used as read trimming tool for Illumina NGS data. The adapter sequence was trimmed using the adapter trimming program “cutadapt” if the Trimming of the region at the end of the read sequence overlapped the corresponding sequence by at least one base (mismatch tolerance: 20%). When reads containing N were present in at least one of Read1 and Read2, both Read1 and Read2 were removed. Trimming of low QV regions was performed on the read data after processing using the QV trimming program “Trimmomatic” under the following conditions. The window of 20 bases is slid from the 5' side, and the area where the average QV is less than 20 is trimmed. After trimming, only the reads with more than 50 bases remaining in both Read1 and Read2 were taken as output. The microbial community analysis based on 16S rRNA sequence was performed on the sequence data trimmed in the previous section using the microbial community analysis program “QIIME2”. The annotation program “sklearn” included in QIIME2 is used to annotate the ASV (OTU) sequences. […]

## CCCc1nc2c(C)cc(-c3nc4ccccc4n3C)cc2n1Cc1ccc(-c2ccccc2C(=O)O)cc1 [Telmisartan]
Line r302
  Abundance: S24-7, —, —: 47
Line r303
  Abundance: —, —, —: 0
Line r304
  Abundance: Ruminococcaceae, Oscillospira, —: 35
Line r305
  Abundance: Bacteroidaceae, Bacteroides, acidifaciens: 0
Line r306
  Abundance: Bacteroidaceae, Bacteroides, acidifaciens: 0
Line r307
  Abundance: Lachnospiraceae, Dorea, —: 25
Line r308
  Abundance: Ruminococcaceae, Other, Other: 10
Line r309
  Abundance: Lachnospiraceae, —, —: 7
Line r310
  Abundance: Lachnospiraceae, —, —: 20
Line r311
  Abundance: S24-7, —, —: 1
Line r312
  Abundance: Lachnospiraceae, Other, Other: 14
Line r313
  Abundance: —, —, —: 0
Line r314
  Abundance: Ruminococcaceae, Oscillospira, —: 0
Line r315
  Abundance: Ruminococcaceae, Oscillospira, —: 42
Line r316
  Abundance: Lachnospiraceae, —, —: 14
Line r317
  Abundance: Erysipelotrichaceae, —, —: 0
Line r319
  Abundance: Lachnospiraceae, —, —: 13
Line r320
  Abundance: Ruminococcaceae, Oscillospira, —: 0
Line r321
  Abundance: Lachnospiraceae, —, —: 22
Line r322
  Abundance: Other, Other, Other: 49
Line r323
  Abundance: F16, —, —: 0
Line r324
  Abundance: Christensenellaceae, —, —: 19
Line r325
  Abundance: Lachnospiraceae, Other, Other: 0
Line r326
  Abundance: Ruminococcaceae, Oscillospira, —: 12
Line r327
  Abundance: —, —, —: 80
Line r328
  Abundance: Ruminococcaceae, Other, Other: 14
Line r329
  Abundance: —, —, —: 0
Line r330
  Abundance: Lachnospiraceae, Other, Other: 0
Line r331
  Abundance: Other, Other, Other: 0
Line r332
  Abundance: Enterococcaceae, Vagococcus, —: 0
Line r333
  Abundance: Ruminococcaceae, Ruminococcus, —: 23
Line r334
  Abundance: Erysipelotrichaceae, Coprabacillus, —: 11
Line r335
  Abundance: Other, Other, Other: 0
Line r336
  Abundance: Ruminococcaceae, Oscillospira, —: 11
Line r337
  Abundance: Ruminococcaceae, Oscillospira, —: 0
Line r338
  Abundance: —, —, —: 0
Line r339
  Abundance: Lachnospiraceae, —, —: 0
Line r340
  Abundance: Ruminococcaceae, Oscillospira, —: 0
Line r341
  Abundance: Lachnospiraceae, Coprococcus, —: 0
Line r342
  Abundance: Ruminococcaceae, Other, Other: 8
Line r343
  Abundance: —, —, —: 0
Line r344
  Abundance: Erysipelotrichaceae, —, —: 6
Line r345
  Abundance: Rikenellaceae, —, —: 0
Line r346
  Abundance: —, —, —: 0
Line r347
  Abundance: —, —, —: 0
Line r348
  Abundance: —, —, —: 8
Line r349
  Abundance: Lachnospiraceae, —, —: 0
Line r350
  Abundance: —, —, —: 15
Line r351
  Abundance: Lachnospiraceae, Clostridium, Other: 0
Line r352
  Abundance: Erysipelotrichaceae, —, —: 9
Line r353
  Abundance: Streptococcaceae, Streptococcus, minor: 9
Line r354
  Abundance: Ruminococcaceae, Oscillospira, —: 0
Line r355
  Abundance: —, —, —: 27
Line r356
  Abundance: Lachnospiraceae, Other, Other: 7
Line r357
  Abundance: Other, Other, Other: 36
Line r358
  Abundance: —, —, —: 0
Line r359
  Abundance: —, —, —: 0
Line r360
  Abundance: —, —, —: 0
Line r362
  Abundance: Lachnospiraceae, —, —: 7
Line r363
  Abundance: Streptococcaceae, Streptococcus, —: 0
Line r365
  Abundance: S24-7, —, —: 0
Line r367
  Abundance: Other, Other, Other: 0
Line r368
  Abundance: [Mogibacteriaceae], —, —: 0
Line r369
  Abundance: Enterobacteriaceae, Enterobacter, Other: 0
Line r371
  Abundance: Erysipelotrichaceae, —, —: 0
Line r372
  Abundance: Aerococcaceae, Aerococcus, —: 0
Line r373
  Abundance: Ruminococcaceae, Oscillospira, —: 0
Line r374
  Abundance: Ruminococcaceae, Oscillospira, —: 0
Line r375
  Abundance: Other, Other, Other: 5
Line r377
  Abundance: Lachnospiraceae, Coprococcus, —: 0
Line r378
  Abundance: Other, Other, Other: 35
Table row r380
  Abundance: Family Lachnospiraceae, Genus Other, Species Other: 11
Table row r381
  Abundance: Family Ruminococcaceae, Genus Oscillospira, Species —: 0
Table row r382
  Abundance: Family S24-7, Genus —, Species —: 0
Table row r383
  Abundance: Family Ruminococcaceae, Genus Ruminococcus, Species —: 0
Table row r384
  Abundance: Family Ruminococcaceae, Genus Oscillospira, Species —: 31
Table row r389
  Abundance: Family Ruminococcaceae, Genus Ruminococcus, Species —: 0
Table row r390
  Abundance: Family Lachnospiraceae, Genus —, Species —: 0
Table row r391
  Abundance: Family Ruminococcaceae, Genus Oscillospira, Species —: 0
Table row r394
  Abundance: Family Corynebacteriaceae, Genus Corynebacterium, Species stationis: 0
Table row r395
  Abundance: Family Ruminococcaceae, Genus Other, Species Other: 5
Table row r396
  Abundance: Family S24-7, Genus —, Species —: 0
Table row r397
  Abundance: Family Ruminococcaceae, Genus Oscillospira, Species —: 0
Table row r398
  Abundance: Family Ruminococcaceae, Genus Oscillospira, Species —: 0
Table row r399
  Abundance: Family Ruminococcaceae, Genus Ruminococcus, Species —: 0
Table row r400
  Abundance: Family [Mogibacteriaceae], Genus —, Species —: 0
Table row r401
  Abundance: Family Erysipelotrichaceae, Genus Coprobacillus, Species —: 0
Table row r402
  Abundance: Family Erysipelotrichaceae, Genus Clostridium, Species cocleatum: 0
Table row r403
  Abundance: Family S24-7, Genus —, Species —: 0
Table row r404
  Abundance: Family Coriobacteriaceae, Genus —, Species —: 0
Table row r405
  Abundance: Family Coriobacteriaceae, Genus Adlercreutzia, Species —: 0
Table row r407
  Abundance: Family Enterococcaceae, Genus Vagococcus, Species —: 0
Table row r409
  Abundance: Family [Mogibacteriaceae], Genus —, Species —: 0
Table row r413
  Abundance: Family S24-7, Genus —, Species —: 0
Table row r414
  Abundance: Family Ruminococcaceae, Genus Oscillospira, Species —: 0
Table row r415
  Abundance: Family Planococcaceae, Genus Sporosarcina, Species —: 0
Table row r417
  Abundance: Family Erysipelotrichaceae, Genus Other, Species Other: 7
Table row r419
  Abundance: Family Ruminococcaceae, Genus Ruminococcus, Species —: 0
Table row r423
  Abundance: Family Coriobacteriaceae, Genus Adlercreutzia, Species —: 0
Table row r424
  Abundance: Family Other, Genus Other, Species Other: 0
Table row r425
  Abundance: Family Ruminococcaceae, Genus Other, Species Other: 0
Table row r426
  Abundance: Family Erysipelotrichaceae, Genus —, Species —: 0
Table row r427
  Abundance: Family Deferribacteraceae, Genus Mucispirillum, Species schaedleri: 0
Table row r428
  Abundance: Family Methylobacteriaceae, Genus Methylobacterium, Species Other: 0
